From patent US12568967B2, “Compositions comprising pyridine carboxylate herbicides with synthetic auxin herbicides or auxin transport inhibitors” (priority 2018, dated 2026)
Like-named read-outs stand apart in the source and are kept apart here.

What was measured:
[1] = test system: Hordeum vulgare (spring barley, HORVS); format: in vivo; conditions: for % visual injury Obs: HORVS; for % visual injury (crop phytotoxicity): c1-3 Compound A 7.5/10/15
[2] = test system: Papaver rhoeas (corn poppy, PAPRH); test: Greenhouse postemergence trial PAPRH; format: in vivo; conditions: for % visual injury: c1-3 Compound A 7.5/10/15
[3] = test system: Hordeum vulgare (winter barley, HORVW); test: Greenhouse postemergence crop phytotoxicity HORVW; format: in vivo; conditions: for % visual injury Obs: HORVW; for % visual injury (crop phytotoxicity): c1-3 Compound A 7.5/10/15
[4] = test system: Triticum aestivum (spring wheat, TRZAS); format: in vivo; conditions: for % visual injury Obs: TRZAS; for % visual injury (crop phytotoxicity): c1-3 Compound A 7.5/10/15
[5] = test system: Matricaria chamomilla (wild chamomile, MATCH); test: Greenhouse postemergence trial MATCH; format: in vivo; conditions: Matricaria chamomilla, post-emergence, MATCH, read-out: % visual injury Obs;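 further: greenhouse plants sprayed at second to third true leaf stage, injury rated by eye 20-22 d later versus solvent-blank controls on 0–100 scale, 0 no injury, 100 complete kill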
[6] = test system: Veronica persica (bird's-eye speedwell, VERPE); test: Greenhouse postemergence trial VERPE; format: in vivo; conditions: for % visual injury: c1-3 Compound A 7.5/10/15
[7] = test system: Brassica napus (winter rape, BRSNW); test: Greenhouse postemergence trial BRSNW; format: in vivo; conditions: Brassica napus, post-emergence, read-out: % visual injury Obs
[8] = test system: Veronica hederifolia (ivyleaf speedwell, VERHE); test: Greenhouse postemergence trial VERHE; format: in vivo; conditions: for % visual injury: c1-3 Compound A 7.5/10/15
[9] = test system: Capsella bursa-pastoris (shepherd's purse, CAPBP); test: Greenhouse postemergence trial CAPBP; format: in vivo; conditions: for % visual injury: c1-3 Compound A 7.5/10/15
[10] = test system: Cyanus segetum (cornflower, CENCY); test: Greenhouse postemergence trial CENCY; format: in vivo; conditions: for % visual injury: c1-3 Compound A 7.5/10/15
[11] = test system: Lamium purpureum (purple deadnettle, LAMPU); test: Greenhouse postemergence trial LAMPU; conditions: for % visual injury: c1-3 Compound A 7.5/10/15
[12] = test system: Papaver rhoeas (corn poppy), herbicide-resistant (PAPRH-R); test: Greenhouse postemergence trial PAPRH-R; format: in vivo; conditions: for % visual injury: c1-3 Compound A 7.5/10/15
Method: (§1) Seeds of the desired test plant species were planted in a 90:10% v/v (volume/volume) mixture of PRO-MIX® BX (Premier Tech Horticulture, Quakertown, PA, USA) and PROFILE® GREENS GRADE™ (Profile Products LLC, Buffalo Grove, IL, USA) planting mixture, which typically has a pH of 5.2 to 6.2 and an organic matter content of at least 50 percent, in plastic pots with a surface area of 103.2 square centimeters (cm^2). […] The plants were grown for 7-36 days (d) in a greenhouse with an approximate 14-hour (h) photo-period which was maintained at about 23° C. during the day and 22° C. during the night. Nutrients and water were added on a regular basis and supplemental lighting was provided with overhead metal halide 1000-Watt lamps as necessary. The plants were employed for testing when they reached the second or third true leaf stage.
(§2) Emulsifiable concentrates of each of each pyridine carboxylate herbicide (Compound A or Compound B) were prepared at 100 grams acid equivalent per liter (g ae/L). The emulsifiable concentrates also included a safener, cloquintocet-mexyl, at 120 grams active ingredient per liter (g ai/L), unless otherwise noted below. An aliquot of each emulsifiable concentrate was placed in a 25 mL glass vial and diluted with an aqueous mixture of 1.25% (v/v) ACTIROB® B esterified rapeseed oil (Bayer Crop Science, Research Triangle Park, NC, USA) or MSO® Concentrate with LECI-TECH® methylated soybean oil (Loveland Products, Loveland, CO, USA) to obtain concentrated stock solutions at the highest application rate for each herbicide, based upon a 12 milliliter (mL) application volume at a rate of 187 liters per hectare (L/ha). The concentrated stock solutions were further diluted with an aqueous mixture of 1.25% v/v ACTIROB® B or MSO® Concentrate with LECI-TECH® to obtain stock solutions at reduced application rates for each herbicide. Spray solutions of the herbicide combinations (Compound A or Compound B plus synthetic auxin herbicide or auxin transport inhibitor) were prepared by adding weighed amounts or aliquots of the synthetic auxin herbicide or auxin transport inhibitor to the stock solutions of Compound A or Compound B to form 12-mL spray solutions in two-way combinations.
(§3) The spray solutions were applied to the plant material with an overhead Mandel track sprayer equipped with 8002E nozzles calibrated to deliver 187 L/ha over an application area of 0.503 square meters (m^2) at a spray height of 18 inches (43 centimeters (cm)) above the average plant canopy. Control plants were sprayed in the same manner with the solvent blank. All pyridine carboxylate herbicide (component a) application rates are given as “g ae/ha” and all synthetic auxin herbicide or auxin transport inhibitor (component b) application rates are given as “g ai/ha.”
(§4) The treated plants and control plants were placed in a greenhouse as described above and watered by sub-irrigation to prevent wash-off of the test compounds. After 20-22 d, the condition of the test plants as compared with that of the control plants was determined visually and scored on a scale of 0 to 100 percent where 0 corresponds to no injury and 100 corresponds to complete kill.

[13] = test system: Triticum aestivum (winter wheat, TRZAW); test: Greenhouse postemergence crop phytotoxicity TRZAW; format: in vivo; conditions: for % visual injury Obs: TRZAW; for % visual injury (crop phytotoxicity): c1-3 Compound A 7.5/10/15
[14] = test system: Salsola kali (Russian thistle, SASKR); test: Greenhouse postemergence trial SASKR; format: in vivo; conditions: Salsola kali, post-emergence, SASKR, read-out: % visual injury Obs;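 further: greenhouse plants sprayed at second or third true leaf stage, injury rated by eye after 20-22 d against solvent-blank controls, 0 meaning no injury, 100 complete kill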
[15] = test system: Cirsium arvense (Canadian thistle, CIRAR); test: Greenhouse postemergence trial CIRAR; format: in vivo; conditions: Cirsium arvense, post-emergence, CIRAR, read-out: % visual injury Obs
[16] = test system: Viola arvensis (field violet, VIOAR); test: Greenhouse postemergence trial VIOAR; format: in vivo; conditions: for % visual injury: c1-3 Compound A 7.5/10/15
Method: as §1, §2, §3, §4

[17] = test system: Kochia scoparia (kochia, KCHSC); test: Greenhouse postemergence trial KCHSC; format: in vivo; conditions: Bassia scoparia, post-emergence, KCHSC, read-out: % visual injury Obs
[18] = test system: Sinapis arvensis (wild mustard, SINAR); test: Greenhouse postemergence trial SINAR; format: in vivo; conditions: Mutarda arvensis, post-emergence, SINAR, read-out: % visual injury Obs
Method: The plants were grown for 7-36 days (d) in a greenhouse with an approximate 14-hour (h) photo-period which was maintained at about 23° C. during the day and 22° C. during the night. Nutrients and water were added on a regular basis and supplemental lighting was provided with overhead metal halide 1000-Watt lamps as necessary. The plants were employed for testing when they reached the second or third true leaf stage.
The emulsifiable concentrates also included a safener, cloquintocet-mexyl, at 120 grams active ingredient per liter (g ai/L), unless otherwise noted below.
Control plants were sprayed in the same manner with the solvent blank. All pyridine carboxylate herbicide (component a) application rates are given as “g ae/ha” and all synthetic auxin herbicide or auxin transport inhibitor (component b) application rates are given as “g ai/ha.”
as §4

[19] = test system: Matricaria inodora (false chamomile, MATIN); test: Greenhouse postemergence trial MATIN; format: in vivo; conditions: for % visual injury: c1-3 Compound A 7.5/10/15
[20] = test system: Galium aparine (cleavers, GALAP); test: Greenhouse postemergence trial GALAP; format: in vivo; conditions: c1-3 Compound A 7.5/10/15
Method: as §1, §2, §3, §4

[21] = test system: Stellaria media (chickweed, STEME); test: Greenhouse postemergence trial STEME; format: in vivo; conditions: for % visual injury: c1-3 Compound A 7.5/10/15
[22] = test system: Anthemis arvensis (field chamomile, ANTAR); test: Greenhouse postemergence trial ANTAR; format: in vivo; conditions: for % visual injury: c1-3 Compound A 7.5/10/15
[23] = test system: Polygonum convolvulus (wild buckwheat, POLCO); test: Greenhouse postemergence trial POLCO; format: in vivo; conditions: Fallopia convolvulus, post-emergence, read-out: % visual injury Obs
[24] = test system: Matricaria discoidea (pineapple weed, MATMT); test: Greenhouse postemergence trial MATMT; format: in vivo; conditions: for % visual injury: c1-3 Compound A 7.5/10/15
[25] = test system: Viola tricolor (wild pansy, VIOTR); test: Greenhouse postemergence trial VIOTR; conditions: for % visual injury: c1-3 Compound A 7.5/10/15;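 on all read-outs here: greenhouse plants sprayed at second to third true leaf stage, injury rated visually after 20-22 d against solvent-blank sprayed controls, 0 meaning no injury and 100 complete kill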
[26] = c4 Aminopyralid 5, c5-7 A 7.5/10/15 + Aminopyralid 5 g/ha
[27] = Papaver rhoeas, post-emergence, read-out: % visual injury Obs
[28] = Lamium purpureum, post-emergence, read-out: % visual injury Obs
[29] = Viola tricolor, post-emergence, read-out: % visual injury Obs
[30] = c4 Halauxifen-methyl 6, c5-7 A 7.5/10/15 + Halauxifen-methyl 6 g/ha

## Nc1cc(Cl)nc(C(=O)O)c1Cl [Aminopyralid, aminopyralid, reference compound]
[1]; Aminopyralid 10 g/ha
  % visual injury Obs: 0%
[1]; [26]
  % visual injury (crop phytotoxicity): 0%
[2]; [27]
  pest or weed control at 10 g/ha: 65%
[2]; [26]
  % visual injury: 30%
[3]; Aminopyralid 10 g/ha
  % visual injury Obs: 0%
[3]; [26]
  % visual injury (crop phytotoxicity): 0%
[4]; Aminopyralid 10 g/ha
  % visual injury Obs: 0%
[4]; [26]
  % visual injury (crop phytotoxicity): 0%
[5]; Aminopyralid 10 g/ha
  pest or weed control at 10 g/ha: 10%
[6]; Veronica persica, post-emergence, read-out: % visual injury Obs
  pest or weed control at 10 g/ha: 10%
[6]; [26]
  % visual injury: 0%
[7]
  plant injury at 10 g/ha: 10%
[8]; Veronica hederifolia, post-emergence, read-out: % visual injury Obs
  pest or weed control at 10 g/ha: 25%
[8]; [26]
  % visual injury: 0%
[9]; Capsella bursa-pastoris, post-emergence, read-out: % visual injury Obs
  pest or weed control at 10 g/ha: 0%
[9]; [26]
  % visual injury: 0%
[10]; Centaurea cyanus, post-emergence, read-out: % visual injury Obs
  pest or weed control at 10 g/ha: 65%
[10]; [26]
  % visual injury: 50%
[11]; [28]
  pest or weed control at 10 g/ha: 10%
[11]; [26]
  % visual injury: 0%
[12]; [27]
  pest or weed control at 10 g/ha: 65%
[12]; [26]
  % visual injury: 50%
[13]; Aminopyralid 10 g/ha
  % visual injury Obs: 0%
[13]; [26]
  % visual injury (crop phytotoxicity): 0%
[14]; Aminopyralid 10 g/ha
  pest or weed control at 10 g/ha: 20%
[15]; Aminopyralid 10 g/ha
  pest or weed control at 10 g/ha: 60%
[16]; Viola arvensis, post-emergence, read-out: % visual injury Obs
  pest or weed control at 10 g/ha: 10%
[16]; [26]
  % visual injury: 25%
[17]; Aminopyralid 10 g/ha
  pest or weed control at 10 g/ha: 10%
[18]; Aminopyralid 10 g/ha
  pest or weed control at 10 g/ha: 20%
[19]; Tripleurospermum inodorum, post-emergence, read-out: % visual injury Obs
  pest or weed control at 10 g/ha: 60%
[19]; [26]
  % visual injury: 10%
[20]; [26]
  % visual injury: 60%
[21]; Stellaria media, post-emergence, read-out: % visual injury Obs
  pest or weed control at 10 g/ha: 5%
[21]; [26]
  % visual injury: 0%
[22]; Anthemis arvensis, post-emergence, read-out: % visual injury Obs
  pest or weed control at 10 g/ha: 60%
[22]; [26]
  % visual injury: 10%
[23]
  pest or weed control at 10 g/ha: 75%
[24]; Matricaria discoidea, post-emergence, read-out: % visual injury Obs
  pest or weed control at 10 g/ha: 0%
[24]; [26]
  % visual injury: 0%
[25]; [29]
  pest or weed control at 10 g/ha: 10%
[25]; [26]
  % visual injury: 0%

## COC(=O)c1nc(-c2ccc(Cl)c(OC)c2F)cc(N)c1Cl [Halauxifen-methyl, halauxifen-methyl, reference compound]
[1]; Halauxifen-methyl 3 g/ha
  % visual injury Obs: 0%
[1]; [30]
  % visual injury (crop phytotoxicity): 0%
[2]; Papaver rhoeas, post-emergence, PAPRH, Halauxifen-methyl 3 g/ha, read-out: % visual injury Obs
  pest or weed control at 3 g/ha: 70%
[2]; [30]
  % visual injury: 70%
[3]; Halauxifen-methyl 3 g/ha
  % visual injury Obs: 0%
[3]; [30]
  % visual injury (crop phytotoxicity): 0%
[4]; Halauxifen-methyl 3 g/ha
  % visual injury Obs: 0%
[4]; [30]
  % visual injury (crop phytotoxicity): 0%
[5]; Halauxifen-methyl 3 g/ha
  pest or weed control at 3 g/ha: 10%
[6]; Veronica persica, post-emergence, VERVE, Halauxifen-methyl 3 g/ha, read-out: % visual injury Obs
  pest or weed control at 3 g/ha: 20%
[6]; [30]
  % visual injury: 10%
[7]; BRSNW, Halauxifen-methyl 3 g/ha
  plant injury at 3 g/ha: 30%
[8]; Veronica hederifolia, post-emergence, VERHE, Halauxifen-methyl 3 g/ha, read-out: % visual injury Obs
  pest or weed control at 3 g/ha: 10%
[8]; [30]
  % visual injury: 10%
[9]; Capsella bursa-pastoris, post-emergence, CAPBP, Halauxifen-methyl 3 g/ha, read-out: % visual injury Obs
  pest or weed control at 3 g/ha: 75%
[9]; [30]
  % visual injury: 70%
[10]; Centaurea cyanus, post-emergence, CENCY, Halauxifen-methyl 3 g/ha, read-out: % visual injury Obs
  pest or weed control at 3 g/ha: 90%
[10]; [30]
  % visual injury: 97%
[11]; [28]
  pest or weed control at 3 g/ha: 97%
[11]; [30]
  % visual injury: 85%
[12]; Papaver rhoeas, post-emergence, PAPRH-R, Halauxifen-methyl 3 g/ha, read-out: % visual injury Obs
  pest or weed control at 3 g/ha: 65%
[12]; [30]
  % visual injury: 60%
[13]; Halauxifen-methyl 3 g/ha
  % visual injury Obs: 0%
[13]; [30]
  % visual injury (crop phytotoxicity): 0%
[14]; Halauxifen-methyl 3 g/ha
  pest or weed control at 3 g/ha: 50%
[15]; Halauxifen-methyl 3 g/ha
  pest or weed control at 3 g/ha: 65%
[16]; Viola arvensis, post-emergence, VIOAR, Halauxifen-methyl 3 g/ha, read-out: % visual injury Obs
  pest or weed control at 3 g/ha: 10%
[16]; [30]
  % visual injury: 5%
[17]; Halauxifen-methyl 3 g/ha
  pest or weed control at 3 g/ha: 50%
[18]; Halauxifen-methyl 3 g/ha
  pest or weed control at 3 g/ha: 70%
[19]; Tripleurospermum inodorum, post-emergence, MATIN, Halauxifen-methyl 3 g/ha, read-out: % visual injury Obs
  pest or weed control at 3 g/ha: 0%
[19]; [30]
  % visual injury: 10%
[20]; [30]
  % visual injury: 95%
[21]; Stellaria media, post-emergence, STEME, Halauxifen-methyl 3 g/ha, read-out: % visual injury Obs
  pest or weed control at 3 g/ha: 30%
[21]; [30]
  % visual injury: 65%
[22]; Anthemis arvensis, post-emergence, ANTAR, Halauxifen-methyl 3 g/ha, read-out: % visual injury Obs
  pest or weed control at 3 g/ha: 50%
[22]; [30]
  % visual injury: 40%
[23]; POLCO, Halauxifen-methyl 3 g/ha
  pest or weed control at 3 g/ha: 80%
[24]; Matricaria discoidea, post-emergence, MATMT, Halauxifen-methyl 3 g/ha, read-out: % visual injury Obs
  pest or weed control at 3 g/ha: 0%
[24]; [30]
  % visual injury: 65%
[25]; [29]
  pest or weed control at 3 g/ha: 60%
[25]; [30]
  % visual injury: 10%
